Where two headings read alike, the source gives them in different places.
Columns and labels:
C. perfringens [1] = type: cell-based, Clostridium perfringens
C. perfringens [2] = type: cell-based, Clostridium perfringens; remark: listed apart in the source
C. perfringens isolates = type: cell-based, Clostridium perfringens
[3] = tested on: C. perfringens strain CP6; type: in vivo, Ross x Ross broiler chickens; settings: T3 BMD 55 gm/metric ton in feed, C. perfringens challenge; for Adjusted FCR: adjusted for mortality
[4] = tested on: C. perfringens strain CP6; type: in vivo, Ross x Ross broiler chickens; settings: for Adjusted FCR: adjusted for mortality
[5] = Day 0 to 14, T3 BMD 55 gm/metric ton, C. perfringens challenge
[6] = Day 0 to 22, T3 BMD 55 gm/metric ton, C. perfringens challenge
[7] = Day 0 to 28, T3 BMD 55 gm/metric ton, C. perfringens challenge
[8] = T3 BMD 55 gm/metric ton, C. perfringens challenge, DOT 22

Clostridium phage vB_CpeM_ACP45
Virulence Index (C. perfringens [1]): 0.91
Cocktail MOI (C. perfringens [2]): 0.01
Individual MOI (C. perfringens [2]): 0.01

Clostridium phage vB_CpeM_SMS460
Virulence Index (C. perfringens [1]): 0.95
Clostridium perfringens strains capable of being infected or lysed (host range, FIG. 2) (C. perfringens isolates): ATCC 13124, Q143.CN7, JBCNJ055, Q100,CN13, Q159.4C, JBFR063, M030.1C, CP_UoA_CA_39, CP_UoA_CA_24, JBCNI056, JBCNC058, JBCNC056 and CP_UoA_CA_132
Cocktail MOI (C. perfringens [2]): 0.001
Individual MOI (C. perfringens [2]): 0.01

Clostridium phage vB_CpeP_ACP8
Virulence Index (C. perfringens [1]): 0.92
Cocktail MOI (C. perfringens [2]): 0.001
Individual MOI (C. perfringens [2]): 0.01

Clostridium phage vB_CpeM_AE3110
Virulence Index (C. perfringens [1]): 0.24
Cocktail MOI (C. perfringens [2]): 0.01
Individual MOI (C. perfringens [2]): 0.1

Clostridium phage vB_CpeS_RO96
Virulence Index (C. perfringens [1]): 0.67
Cocktail MOI (C. perfringens [2]): 0.01
Individual MOI (C. perfringens [2]): 0.01

Clostridium phage vB_CpeP_ACP22
Virulence Index (C. perfringens [1]): 0.14
Cocktail MOI (C. perfringens [2]): 0.01
Individual MOI (C. perfringens [2]): 0.1

Clostridium phage vB_CpeP_ACP10
Virulence Index (C. perfringens [1]): 0.19
Cocktail MOI (C. perfringens [2]): 0.001
Individual MOI (C. perfringens [2]): 0.1

Bacitracin methylene disalicylate [Bacitracin Methylene Disalicylate (BMD)]
Feed Intake ([3]; Day 0 to 14): 4.87A Kg/Cage
Non-Adjusted FCR ([3]; Day 0 to 14): 1.217AB
Weight Gain ([3]; Day 0 to 14): 0.430A ^ kg
Adjusted FCR ([3]; Day 0 to 14): 1.186AB
Feed Intake ([3]; Day 0 to 22): 11.55AB Kg/Cage
Non-Adjusted FCR ([3]; Day 0 to 22): 1.662BC
Weight Gain ([3]; Day 0 to 22): 0.861AB kg
Adjusted FCR ([3]; Day 0 to 22): 1.470AB
Feed Intake ([3]; Day 0 to 28): 16.095BC Kg/Cage
Non-Adjusted FCR ([3]; Day 0 to 28): 1.867BC
Overall Mortality ([3]; Day 0 to 28): 24.00AB Percent
Weight Gain ([3]; Day 0 to 28): 1.236AB kg
Adjusted FCR ([3]; Day 0 to 28): 1.581A
NE Percent Mortality [3]: 18.00A Percent
Lesion Scores Dunn's All-Pairwise Comparisons Test ([3]; DOT 22): 33.00AB
Lesion Scores Kruskal-Wallis One-Way AOV (Mean Rank) ([3]; DOT 22): 33.00
Lesion Scores Mean Score (Hofacre, 1998) ([3]; DOT 22): 0.60AB
NE Percent Mortality ([3]; listed as BMD): 18%
Feed Intake [4, 5]: 4.55A Kg/Cage
Non-Adjusted FCR [4, 5]: 1.353AB
Weight Gain [4, 5]: 0.338A kg
Adjusted FCR [4, 5]: 1.353AB
Feed Intake [4, 6]: 10.47A Kg/Cage
Non-Adjusted FCR [4, 6]: 1.403AB
Weight Gain [4, 6]: 0.776A kg
Adjusted FCR [4, 6]: 1.361AB
Feed Intake [4, 7]: 15.93A Kg/Cage
Non-Adjusted FCR [4, 7]: 1.483B
Overall Mortality [4, 7]: 3.33AB Percent
Weight Gain [4, 7]: 1.154A kg
Adjusted FCR [4, 7]: 1.453A
Lesion Scores Dunn's All-Pairwise Comparisons Test [4, 8]: 13.83A
Lesion Scores Kruskal-Wallis One-Way AOV (Mean Rank) [4, 8]: 13.83
Lesion Scores Mean Score (Hofacre, 1998) [4, 8]: 0.33A
FCR to DOT 28 versus challenge control (T2) ([4]; both doses (T4 & T5) and BMD (T3)): significantly better than the challenge control

Clostridium phage vB_CpeP_MN6171
Virulence Index (C. perfringens [1]): 0.19
Cocktail MOI (C. perfringens [2]): 0.01
Individual MOI (C. perfringens [2]): 0.01

Clostridium phage vB_CpeP_ACP11
Virulence Index (C. perfringens [1]): 0.03
Cocktail MOI (C. perfringens [2]): 0.01
Individual MOI (C. perfringens [2]): 0.1

Clostridium phage vB_CpeP_VLR28
Virulence Index (C. perfringens [1]): 0.18
Cocktail MOI (C. perfringens [2]): 0.001
Individual MOI (C. perfringens [2]): 0.01

Clostridium phage vB_CpeP_ACP5
Virulence Index (C. perfringens [1]): 0.86
Cocktail MOI (C. perfringens [2]): 0.001
Individual MOI (C. perfringens [2]): 0.01

Reference: US20240182869A1 (priority 2021, published 2024)
